Data as given in publication PMC6701825, “Antiproliferative and Antimigratory Effects of a Novel YAP–TEAD Interaction Inhibitor Identified Using in Silico Molecular Docking” (Journal of Medicinal Chemistry, 2019).
Where two headings read alike, the source gives them in different places.

Tests used:
RaVSMCs = assay: Real-time IncuCyte scratch wound migration assay in RaVSMCs; type: cell-based, rat
Description: (§1) Cell proliferation was measured using the Click-iT EdU 488 assay (Sigma-Aldrich). Briefly, the cells were treated with indicated concentrations of compounds for 24 h with the last 4 h being in the presence of 10 μM EdU. The cells were fixed in 4% formaldehyde and stained for EdU incorporation, following the kit’s standard protocol. The cells were counterstained with Hoechst 33342 nucleic acid for 20 min. Fluorescent images of at least three fields of view per well were counted using ImageJ software. Real-time analysis of cell migration was performed using an IncuCyte ZOOM live cell imaging system (Essen BioScience) according to the manufacturer’s instructions. Briefly, the cells were seeded (1.2 × 10^4 cells/well for HeLa cells, 1.5 × 10^4 cells/well for RaVSMCs, and 1 × 10^4 cells/well) into ImageLock 96-well plates. After 36 h, the cells were pretreated overnight with indicated concentrations of compounds. The wells were scratched using a WoundMaker tool, and the media were replaced containing test compounds. Phase contrast images of cell migration into the wounded area were acquired hourly for 24 h. Relative wound confluence was calculated using the Cell Migration Image analysis module of the IncuCyte ZOOM software.
Supplement Figure 5: Effect of low micromolar doses of CPD3 on rat VSMC migration.
VSMC were incubated with the indicated doses of CPD3 for 18 hours before quantification […]

CCN1 promoter [1] = assay: CCN1-luciferase reporter in HeLa cells; type: cell-based, human; details: 6 h, indicated concentrations
Text: (§2) Activation of TEAD transcription factors in response to YAP binding induces the expression of many genes that encode proteins known to be involved in promoting cell proliferation and migration (see Supplement Figure 14). The best characterized TEAD target genes associated with the promotion of cell proliferation and migration are CCN1 and CTGF.[39],[59],[60] […] We therefore tested whether CPD3 inhibited the promoter activity of known TEAD target genes, CCN1 and CTGF, in the HeLa transformed cell line and primary rat VSMCs (RaVSMCs). Cells were transfected with plasmids expressing bioluminescent firefly luciferase reporter genes under the control of either the CCN1 or CTGF promoter regions. […] As both CCN1 and CTGF are classical TEAD target genes, this is consistent with the inhibition of TEAD activity by CPD3.
(§3) TNT1-minP reporter containing the Troponin-T minimal promoter was generated by digesting 8xGTIIC-luciferase plasmid (Addgene #34615) with Kpn1 and BglII to remove the TEAD elements, followed by blunt end re-ligation. A 2.177 kb fragment of the human CCN1 promoter containing two proximal TEAD elements (Hg19;chr1:86044316–chr1:86046493) was described previously[39] and cloned into pGL4-luciferase (Promega). […]

HeLa cells [2] = assay: Live/dead cell viability assay (ethidium homodimer-1) in HeLa cells; type: cell-based
Description: Cell viability was quantified using the live/dead viability/cytotoxicity assay standard protocol (Invitrogen). Maximum cell death was quantified by incubating cells for 10 min with 0.1% Triton-X, followed by incubation with 0.4 μM ethidium homodimer-1 for an additional 10 min. Fluorescence was measured using a GloMax Discover multiplate reader (Promega).
Supplement Figure 3: Effect of shortlisted compounds on cell viability
(§4) HeLa cells transduced with TEAD-NLUC reporter were treated with indicated compounds at 100 µM for 6 hours (n=3). Cell viability was quantified by staining with 0.4 µM ethidium homodimer-1 and ethidium homodimer-1 uptake quantified by measuring fluorescence at 645 nm using a Glomax Discover plate reader.
(1 picture or pasted object on this page, not shown here)
as §4, with “Supplement Figure 6: Effect of CPD3, CPD3.1, CPD3.2 and CPD 3.3 on cell viability HeLa” for “HeLa”, “concentrations of CPD3, CPD3.1, CPD3.2 and CPD 3.3” for “compounds at 100 µM”, “plate” for “plate reader.”

CCN1 promoter [3] = assay: CCN1-luciferase reporter in RaVSMCs; type: cell-based, rat
Text: as §2
Figure 9 Compound 3.1 inhibits TEAD target gene expression, cell proliferation, and cell migration in RaVSMCs. […] Total RNA was analyzed for mRNA levels of TEAD-target genes (D) or constitutive housekeeping genes (E) by qRT-PCR. […] Total cell lysates were analyzed for CCN1 protein expression by Western blotting (F). […] RaVSMCs (I) or HuVSMC (J) were treated with indicated concentrations of compound 3.1 and cell migration quantified using IncuCyte real time migration assay (n = 4). […]

HeLa cells [4] = assay: EdU proliferation assay in HeLa cells; type: cell-based, human; details: for cell proliferation (EdU incorporation): 18 h then 6 h 10 μM EdU
Description: as §1

[5] = test system: TEAD-independent minimal TNT1 gene promoter; assay: Minimal TNT1 promoter-luciferase (minP-LUC) reporter in HeLa cells; type: cell-based, human; details: 6 h
Text: as §2, §3

[6] = test system: housekeeping genes PGK1, TBP, GAPDH, 36B4; assay: qRT-PCR of TEAD-independent housekeeping gene mRNA in RaVSMCs; type: cell-based, rat
Description: Figure 9 Compound 3.1 inhibits TEAD target gene expression, cell proliferation, and cell migration in RaVSMCs. RaVSMCs stably transduced with TEAD-NLUC (A) or transiently transfected with CCN1-LUC or CTGF-LUC were treated with the indicated concentrations of compound 3.1 for 6 hr. Cell conditioned media (A) or cell lysates (B−C) were assayed for nanoluciferase or fire-fly luciferase activity, respectively. VSMC were treated with 60 μM compound 3.1 for 6 h (n = 3). Total RNA was analyzed for mRNA levels of TEAD-target genes (D) or constitutive housekeeping genes (E) by qRT-PCR. VSMC were treated with indicated concentrations of compound 3.1 for 16 hr (n = 4). Total cell lysates were analyzed for CCN1 protein expression by Western blotting (F). […] RaVSMCs (I) or HuVSMC (J) were treated with indicated concentrations of compound 3.1 and cell migration quantified using IncuCyte real time migration assay (n = 4).
Quantitative reverse transcription (RT)-PCR: quantification of mRNA was performed by RT-qPCR, as described previously.[39] Total RNA was extracted using Ambion PureLink kits (Thermo Fisher) and reverse-transcribed using QuantiTect RT kit (Qiagen) and random primers. Quantitative PCR was performed using Roche SYBR Green using a Qiagen Roto-GeneRotor-Gene Q PCR machine (20 seconds@95 °C; 20 seconds @62 °C; 20 seconds@72 °C). […]

| Compound | cell migration (scratch wound) (RaVSMCs) | CCN1-luciferase reporter gene activity (CCN1 promoter [1]) | effect on cell viability (HeLa cells [2]) | IC50 (CCN1 promoter [3]; Rattus norvegicus, 6 hr, read-out: IC50, CCN1-LUC (as printed in Figure 9B)) | doses at which EdU incorporation was significantly inhibited (HeLa cells [4]) | cell proliferation (EdU incorporation) (HeLa cells [4]) | activity of TEAD-independent minimal TNT1 promoter (minP-LUC) [5] | steady-state mRNA levels of housekeeping genes PGK1, TBP, GAPDH, 36B4 ([6]; VSMC, 60 μM, 6 h) | effect on cell viability (HeLa cells [2]; 100 µM, 6 hours, HeLa TEAD-NLUC cells) | effect on cell viability (HeLa cells [2]; indicated concentrations, 6 hours, HeLa (Supplement Figure 6)) | CCN1-luciferase reporter gene activity (CCN1 promoter [3]; 6 h, indicated concentrations) | steady-state mRNA level of housekeeping gene 36B4 ([6]; RaVSMCs, Supplement Figure 4) |
| --- | --- | --- | --- | --- | --- | --- | --- | --- | --- | --- | --- | --- |
| Cc1ccc2c(c1)c1c3n2CCNC3CCC1 (stereo not shown) [CPD3.1] | inhibited in a dose-dependent manner by 2, 10, and 20 μM CPD3.1 | dose-dependent inhibition | without affecting cell viability | 48 µM | above 40 μM | dose-dependently inhibited HeLa cell proliferation | without affecting expression | unaffected |  |  |  |  |
| Cc1ccc2c(c1)c1c3n2CCN(CC(O)CN2CCN(C(=O)c4ccco4)CC2)C3CCC1 (stereo not shown) [CPD3] | dose-dependently inhibited | strong and significant dose-dependent inhibition |  |  |  | dose-dependently inhibited cell proliferation | not inhibited by any concentration |  | without significantly affecting cell viability | did not affect cell viability | strong and significant dose-dependent inhibition | but not the TEAD-independent housekeeping gene 36B4 |
